# Experimental data reported in US20200172473A1, “DUAL MODULATORS OF FARNESOID X RECEPTOR AND SOLUBLE EPOXIDE HYDROLASE” (JOHANN WOLFGANG GOETHE-UNIVERSITÄT FRANKFURT AM MAIN, priority 2017, published 2020).
# “Also recorded” adds a separate entry of the source.
# Assays:
# LXRβ = biological target: T1, LXRβ (Homo sapiens, UniProt P55055); assay: Gal4-hybrid reporter gene assay LXRβ in HEK293T cells; type: cell-based; details: 10 μM; printed as both LXR subtypes
# T1 construct: pFA-CMV-hLXRβ-LBD; expressed in transfected cells; host or cells: HEK293T
# T1 sequence (P55055 222-460 limits assumed): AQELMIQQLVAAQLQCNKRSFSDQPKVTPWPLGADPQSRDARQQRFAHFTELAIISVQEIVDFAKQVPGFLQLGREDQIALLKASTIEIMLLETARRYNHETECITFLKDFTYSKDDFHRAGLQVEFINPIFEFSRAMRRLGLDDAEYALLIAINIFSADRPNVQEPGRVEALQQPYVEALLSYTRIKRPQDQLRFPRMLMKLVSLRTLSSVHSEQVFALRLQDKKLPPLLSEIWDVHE
# Source text: (§1) Hybrid reporter gene assays for PPARα/γ/δ, LXRα/β, RXRα/β/γ, RARα/β/γ, VDR and PXR Plasmids: The Gal4-fusion receptor plasmids pFA-CMV-hPPARα-LBD^52, pFA-CMV-hPPARγ-LBD^52, pFA-CMV-hPPARδ-LBD^52, pFA-CMV-hLXRα-LBD^32 and pFA-CMV-hLXRβ-LBD^32 have been reported previously. […] Frame and sequence of all fusion receptors were verified by sequencing. pFR-Luc (Stratagene) was used as reporter plasmid and pRL-SV40 (Promega) for normalization of transfection efficiency and cell growth.
# Assay procedure: HEK293T cells were grown in DMEM high glucose, supplemented with 10% FCS, sodium pyruvate (1 mM), penicillin (100 U/mL) and streptomycin (100 μg/mL) at 37° C. and 5% CO2. The day before transfection, HEK293T cells were seeded in 96-well plates (2.5·10^4 cells/well). Before transfection, medium was changed to Opti-MEM without supplements. Transient transfection was carried out using Lipofectamine LTX reagent (Invitrogen) according to the manufacturer's protocol with pFR-Luc (Stratagene), pRL-SV40 (Promega) and pFA-CMV-hRXRα-LBD. 5 h after transfection, medium was changed to Opti-MEM supplemented with penicillin (100 U/mL), streptomycin (100 μg/mL), now additionally containing 0.1% DMSO and the respective test compound or 0.1% DMSO alone as untreated control. […] Luminescence was measured with an Infinite M200 luminometer (Tecan Deutschland GmbH). […]
# FXR-LBD = biological target: T2, FXR-LBD (Homo sapiens, UniProt Q96RI1); assay: isothermal titration calorimetry (ITC); type: binding
# T2 sequence (Q96RI1 262-486 limits assumed): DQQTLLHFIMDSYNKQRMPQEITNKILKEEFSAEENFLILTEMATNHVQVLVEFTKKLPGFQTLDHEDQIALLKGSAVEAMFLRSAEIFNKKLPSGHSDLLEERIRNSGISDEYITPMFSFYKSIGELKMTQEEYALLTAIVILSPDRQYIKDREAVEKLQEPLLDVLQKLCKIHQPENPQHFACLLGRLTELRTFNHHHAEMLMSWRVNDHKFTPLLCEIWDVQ
# [1] = tested on: PPARγ target genes CD36 and FAM3A; assay: PPARγ target gene mRNA quantification (qRT-PCR) in HepG2 cells; type: cell-based; details: HepG2, 1 μM
# FXR target genes = assay: FXR target gene mRNA quantification from mouse livers; type: in vivo; details: 10 mg/kg p.o., 8 h post dose
# Description: Three additional animals served as vehicle control.
# A part of the blood was centrifuged (6000 rpm, 10 min, +4° C.) to obtain plasma for quantification of EET/DHET ratio and stored at −80° C. until further evaluation. For liver collection, mice were sacrificed by cervical dislocation after the last blood sampling (8 h post dose). Complete liver was immediately snap-frozen and stored at −80° C. until further evaluation. Plasma and liver were equally obtained from three control mice which received oral application of the vehicle (1% HPMC/Tween 80 (99:1)).
# Quantification of FXR target gene mRNA from mouse livers: Hepatocyte isolation of mouse liver tissue for RT-qPCR: To homogenize the liver samples, one third of each liver was placed on one Falcon™ Cell Strainer with 40 μm pore size (BD Bioscience, Erembodegem, Belgium) in a 50 mL Falcon tube. Every tissue was rinsed with PBS buffer containing 10% FCS and 1% PenStrep and pressed through the cell strainer until 5 mL cell suspension had been collected. The samples were centrifuged at 1200 rpm for to min at 4° C. The supernatant was discarded and the pellets were washed with 5 mL cold PBS buffer and again centrifuged at 1200 rpm for 10 min at 4° C. After discarding the supernatant, the cell pellets were re-suspended in 1 mL PBS and total RNA was extracted using the E. Z. A. Total RNA Kit I (Omega bio-tek Inc., Narcoss, Ga., USA) following the Animal Tissue Protocol. The extracted RNA was used for qRT-PCR and equally treated as described for mRNA quantification from HepG2 cells (see above). PCR primers for the murine genes are listed in the supporting information.
# aqueous solubility = type: physicochemical; details: LLOQ 0.1 μg/mL
# PPARγ = biological target: T3, PPARγ (Homo sapiens, UniProt P37231); assay: Gal4-hybrid reporter gene assay PPARγ in HEK293T cells; type: cell-based
# T3 construct: pFA-CMV-hPPARγ-LBD; expressed in transfected cells; host or cells: HEK293T
# T3 sequence (P37231 238-503 limits assumed): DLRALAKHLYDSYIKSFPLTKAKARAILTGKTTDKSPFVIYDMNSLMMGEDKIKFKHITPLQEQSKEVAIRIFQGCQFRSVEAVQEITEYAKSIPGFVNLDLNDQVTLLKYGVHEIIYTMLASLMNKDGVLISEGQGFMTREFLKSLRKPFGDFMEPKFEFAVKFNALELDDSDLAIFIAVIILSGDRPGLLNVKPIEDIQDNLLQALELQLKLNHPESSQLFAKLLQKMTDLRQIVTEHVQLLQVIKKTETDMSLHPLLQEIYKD
# Source text: as §1
# Assay procedure: HEK293T cells were grown in DMEM high glucose, supplemented with 10% FCS, sodium pyruvate (1 mM), penicillin (100 U/mL) and streptomycin (100 μg/mL) at 37° C. and 5% CO2. The day before transfection, HEK293T cells were seeded in 96-well plates (2.5·10^4 cells/well). Before transfection, medium was changed to Opti-MEM without supplements. Transient transfection was carried out using Lipofectamine LTX reagent (Invitrogen) according to the manufacturer's protocol with pFR-Luc (Stratagene), pRL-SV40 (Promega) and pFA-CMV-hRXRα-LBD. 5 h after transfection, medium was changed to Opti-MEM supplemented with penicillin (100 U/mL), streptomycin (100 μg/mL), now additionally containing 0.1% DMSO and the respective test compound or 0.1% DMSO alone as untreated control. Each concentration was tested in triplicates and each experiment was repeated independently at least three times. […] Luminescence was measured with an Infinite M200 luminometer (Tecan Deutschland GmbH). […] Fold activation was obtained by dividing the mean RLU of a test compound at a respective concentration by the mean RLU of untreated control. Relative activation was obtained by dividing the fold activation of a test compound at a respective concentration by the fold activation of a respective reference agonist at 1 μM (PPARα: GW7647; PPARγ: pioglitazone; PPARδ: L165,041; LXRα/β: T0901317; RXRs: bexarotene; RARs: tretinoin; VDR calcitriol; PXR: SR12813).
# HepG2 cells = assay: WST-1 cytotoxicity assay; type: cell-based; details: up to 100 μM
smiles,measurement,setting,value
"CC(C)(C)c1ccc(C(=O)NCc2ccc(NS(C)(=O)=O)cc2Cl)cc1 [compound 57, 4-(tert-Butyl)-N-(2-chloro-4-(methylsulfonamido)benzyl)benzamide]",activity on LXRβ,LXRβ,inactive
same,Kd,FXR-LBD,0.13 µM
same,ΔH (ITC),FXR-LBD,-19.5 kcal/mol
same,ΔS (ITC),FXR-LBD,−34.0 cal/mol·K
same,CD36 mRNA expression compared to vehicle set as 100%,[1],119±33%
same,FAM3A mRNA expression compared to vehicle set as 100%,[1],112±12%
same,increased expression of BSEP in mouse liver,FXR target genes,approx. 3 fold
same,increased expression of FGF15 in mouse liver,FXR target genes,approx. 2.5 fold
same,increased expression of SHP in mouse liver,FXR target genes,approx. 4 fold
same,reduced SREBP1c levels in mouse liver,FXR target genes,approx. 5 fold
same,SREBP1c mRNA in mouse liver compared to vehicle set as 100%,FXR target genes; vehicle 82±14,17±10%
same,BSEP mRNA in mouse liver compared to vehicle set as 100%,FXR target genes; vehicle 105±24,312±103%
same,SHP mRNA in mouse liver compared to vehicle set as 100%,FXR target genes; vehicle 108+29,410±147%
same,FGF15 mRNA in mouse liver compared to vehicle set as 100%,FXR target genes; vehicle 119±15,254±9%
same,aqueous solubility,aqueous solubility,1.5 µg/mL
same,selectivity for FXR amongst nuclear receptors,PPARγ,≥ 720
same,PPARγ max. activation,PPARγ; relative to pioglitazone at 1 μM,30±1%
same,EC50,PPARγ; weak partial agonism,14.7 ± 0.9 µM
same,cytotoxicity in WST-1 assay,HepG2 cells,no cytotoxic activity; also recorded: no cytotoxicity
